# Assays:
# [1] = tested on: NCI-H358 cells (K-Ras G12C); test: CellTiter-Glo cell viability, NCI-H358; assay type: cell-based, human; details: Homo sapiens, NCI-H358, 120 h, K-Ras G12C, 5-day treatment; read-out: H358 Cell Viability IC50
# Procedure: Note—The following protocol describes a procedure for monitoring cell viability of K-Ras mutant cancer cell lines in response to a compound of the invention. Other RAS isoforms may be employed, though the number of cells to be seeded will vary based on cell line used.
# Test compounds (132.5 nl) were directly dispensed into the assay plates containing cells. […] On day 5, assay plates and their contents were equilibrated to room temperature for approximately 30 minutes. […] Luminescence was measured using the PerkinElmer Enspire. Data were normalized by the following: (Sample signal/Avg. DMSO)*100. The data were fit using a four-parameter logistic fit.
# KRAS G12C = KRAS G12C (Homo sapiens (Human), UniProt P01116+P62937, G12C); test: Ras-Raf disruption/FRET/MOA assay (BRAF RBD, Cyclophilin A); assay type: biochemical; details: read-out: KRAS G12C FRET IC50
# Chain of KRAS G12C (P01116-2 other isoform, or with tags, fused parts or gaps G12C): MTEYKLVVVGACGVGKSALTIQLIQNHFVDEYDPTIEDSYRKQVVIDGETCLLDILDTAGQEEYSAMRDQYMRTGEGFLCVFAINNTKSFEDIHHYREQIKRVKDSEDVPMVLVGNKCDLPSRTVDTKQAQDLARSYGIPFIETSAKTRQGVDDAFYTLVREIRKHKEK
# Chain of KRAS G12C (P62937 whole entry): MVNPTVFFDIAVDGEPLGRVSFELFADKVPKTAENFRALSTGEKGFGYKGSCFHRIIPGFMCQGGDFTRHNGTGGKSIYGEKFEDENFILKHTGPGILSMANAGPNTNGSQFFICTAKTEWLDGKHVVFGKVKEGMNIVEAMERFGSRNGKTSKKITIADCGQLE
# Procedure, shortened: (§1)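 TR-FRET read after 1.5 h with 10 nM anti-His Eu-W1024 and 50 nM anti-GST APC, following 3 h at 25 °C of GMPPNP-loaded His6-Ras (12.5 nM), GST-BRAF RBD (50 nM) and Cyclophilin A (25 μM) with compound from 30 μM final, 10 points, 3-fold. IC50 reported; pH 7.3 HEPES, 100 mM NaCl.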
# KRAS G12D = KRAS G12D (Homo sapiens (Human), UniProt P01116+P62937, G12D); test: as above; assay type: biochemical; details: read-out: KRAS G12D FRET IC50
# Chain of KRAS G12D (P01116 other isoform, or with tags, fused parts or gaps G12D): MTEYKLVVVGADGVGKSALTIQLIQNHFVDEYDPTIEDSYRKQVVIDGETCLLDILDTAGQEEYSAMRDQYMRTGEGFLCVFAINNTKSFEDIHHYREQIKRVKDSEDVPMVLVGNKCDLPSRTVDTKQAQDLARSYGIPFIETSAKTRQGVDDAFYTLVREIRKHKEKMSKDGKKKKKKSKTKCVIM
# Chain of KRAS G12D (P62937 whole entry): as the sequence (P62937 whole entry) above
# Procedure, shortened: as §1
# KRAS G12S = KRAS G12S (Homo sapiens (Human), UniProt P01116+P62937, G12S); test: as above; assay type: biochemical; details: read-out: KRAS G12S FRET IC50
# Chain of KRAS G12S (P01116 other isoform, or with tags, fused parts or gaps G12S): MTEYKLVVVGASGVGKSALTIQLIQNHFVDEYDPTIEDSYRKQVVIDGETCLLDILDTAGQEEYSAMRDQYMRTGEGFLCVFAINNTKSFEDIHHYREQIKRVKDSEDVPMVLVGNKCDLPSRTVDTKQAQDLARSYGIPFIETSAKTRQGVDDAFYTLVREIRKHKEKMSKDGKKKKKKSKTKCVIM
# Chain of KRAS G12S (P62937 whole entry): as the sequence (P62937 whole entry) above
# Procedure, shortened: as §1
# KRAS G12V = KRAS G12V (Homo sapiens (Human), UniProt P01116+P62937, G12V); test: as above; assay type: biochemical; details: read-out: KRAS G12V FRET IC50
# Chain of KRAS G12V (P01116 other isoform, or with tags, fused parts or gaps G12V): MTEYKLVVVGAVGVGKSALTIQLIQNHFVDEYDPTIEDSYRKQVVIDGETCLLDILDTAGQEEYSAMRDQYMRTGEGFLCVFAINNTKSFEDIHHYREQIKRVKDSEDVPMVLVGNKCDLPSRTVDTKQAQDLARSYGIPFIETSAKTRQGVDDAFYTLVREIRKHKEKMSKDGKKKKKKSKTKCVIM
# Chain of KRAS G12V (P62937 whole entry): as the sequence (P62937 whole entry) above
# Procedure, shortened: as §1
# KRAS G13C = KRAS G13C (Homo sapiens (Human), UniProt P01116+P62937, G13C); test: as above; assay type: biochemical; details: read-out: KRAS G13C FRET IC50
# Chain of KRAS G13C (P01116 other isoform, or with tags, fused parts or gaps G13C): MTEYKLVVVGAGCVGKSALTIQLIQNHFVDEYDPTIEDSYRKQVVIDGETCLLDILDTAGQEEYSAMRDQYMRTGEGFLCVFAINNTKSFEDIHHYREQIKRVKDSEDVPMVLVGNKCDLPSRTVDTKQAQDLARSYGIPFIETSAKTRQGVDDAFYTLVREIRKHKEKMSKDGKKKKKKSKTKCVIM
# Chain of KRAS G13C (P62937 whole entry): as the sequence (P62937 whole entry) above
# Procedure, shortened: as §1
# KRAS G13D = KRAS G13D (Homo sapiens (Human), UniProt P01116+P62937, G13D); test: as above; assay type: biochemical; details: read-out: KRAS G13D FRET data IC50
# Chain of KRAS G13D (P01116 other isoform, or with tags, fused parts or gaps G13D): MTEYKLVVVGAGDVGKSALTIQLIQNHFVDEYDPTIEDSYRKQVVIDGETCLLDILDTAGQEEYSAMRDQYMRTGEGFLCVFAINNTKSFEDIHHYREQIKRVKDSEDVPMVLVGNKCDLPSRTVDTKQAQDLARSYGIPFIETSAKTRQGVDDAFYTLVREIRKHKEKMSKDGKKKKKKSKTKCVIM
# Chain of KRAS G13D (P62937 whole entry): as the sequence (P62937 whole entry) above
# Procedure, shortened: as §1
# KRAS WT = KRAS WT (Homo sapiens (Human), UniProt P01116+P62937); test: as above; assay type: biochemical; details: read-out: KRAS WT FRET data IC50
# Chain of KRAS WT (P01116 other isoform, or with tags, fused parts or gaps): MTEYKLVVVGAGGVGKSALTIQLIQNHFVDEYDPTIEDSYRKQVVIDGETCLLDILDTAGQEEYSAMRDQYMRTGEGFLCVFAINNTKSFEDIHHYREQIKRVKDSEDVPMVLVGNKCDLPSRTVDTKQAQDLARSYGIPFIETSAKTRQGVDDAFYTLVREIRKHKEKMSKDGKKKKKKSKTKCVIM
# Chain of KRAS WT (P62937 whole entry): as the sequence (P62937 whole entry) above
# Procedure, shortened: as §1
# NRAS G12C = NRAS G12C (Homo sapiens (Human), UniProt P01111+P62937, G12C); test: as above; assay type: biochemical; details: read-out: NRAS G12C FRET data IC50
# Chain of NRAS G12C (P01111 whole entry G12C): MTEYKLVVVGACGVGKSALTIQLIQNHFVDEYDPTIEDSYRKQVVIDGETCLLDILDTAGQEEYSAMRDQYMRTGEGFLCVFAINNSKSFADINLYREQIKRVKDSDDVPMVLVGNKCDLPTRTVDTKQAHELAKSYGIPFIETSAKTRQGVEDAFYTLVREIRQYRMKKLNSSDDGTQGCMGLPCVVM
# Chain of NRAS G12C (P62937 whole entry): as the sequence (P62937 whole entry) above
# Procedure, shortened: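 Ras-GMPPNP (12.5 nM), BRAF RBD (50 nM) and 25 μM Cyclophilin A were incubated with compound for 3 h at 25° C, then detected 1.5 h with anti-His Eu and anti-GST APC; IC50 values follow from the reduced TR-FRET ratio.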
# [2] = tested on: K-Ras G12C (NCI-H358 cells); test: Potency assay: pERK in NCI-H358 cells; assay type: cell-based, human; details: Homo sapiens; NCI-H358 cells, 4 hours; read-out: pERK EC50 (H358 KRAS G12C)
# Procedure, shortened: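 Cells plated the day before were exposed for 4 h at 37° C, 5% CO2 to a 10-point, 3-fold DMSO dilution series (10 mM top stock), in duplicate. Phospho-ERK was read by AlphaLISA SureFire Ultra or by In-Cell Western with DRAQ5 DNA stain, and IC50 came from a 4-parameter sigmoidal fit.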
Structure (SMILES),IC50 [1] [µM],IC50 (KRAS G12C) [µM],IC50 (KRAS G12D) [µM],IC50 (KRAS G12S) [µM],IC50 (KRAS G12V) [µM],IC50 (KRAS G13C) [µM],IC50 (KRAS G13D) [µM],IC50 (KRAS WT) [µM],IC50 (NRAS G12C) [µM],EC50 [2] [µM]
CCn1c(-c2cnccc2COC)c2c3cc(ccc31)-c1cc(O)cc(c1)C[C@H](NC(=O)[C@H](C(C)C)N(C)c1ncco1)C(=O)N1CCC[C@H](N1)C(=O)OCC(C)(C)C2 [Compound A52],1 to 10,0.1 to 1,> 10,1 to 10,1 to 10,1 to 10,1 to 10,1 to 10,1 to 10,
CCn1c(-c2cccnc2COC)c2c3cc(ccc31)-c1cc(O)cc(c1)C[C@H](NC(=O)[C@H](C(C)C)N(C)C(C)=O)C(=O)N1CCC[C@H](N1)C(=O)OCC(C)(C)C2 [Compound A55],1 to 10,1 to 10,> 10,1 to 10,1 to 10,0.1 to 1,,1 to 10,,< 5
CCn1c(-c2cnccc2COC)c2c3cc(ccc31)-c1cc(O)cc(c1)C[C@H](NC(=O)[C@@H](OC(=O)N1CCCC1)C(C)C)C(=O)N1CCC[C@H](N1)C(=O)OCC(C)(C)C2 [Compound A59],1 to 10,1 to 10,> 10,1 to 10,1 to 10,> 10,1 to 10,1 to 10,1 to 10,
CCn1c(-c2cnccc2COC)c2c3cc(ccc31)-c1cc(O)cc(c1)C[C@H](NC(=O)[C@H](C(C)C)N(C)C(=O)CN/C(N)=N/C#N)C(=O)N1CCC[C@H](N1)C(=O)OCC(C)(C)C2 [Compound A62],> 10,0.01 to 0.1,0.1 to 1,0.1 to 1,0.1 to 1,0.1 to 1,0.1 to 1,0.1 to 1,0.1 to 1,

# Other lines, results leading:
IC50 [1] [µM],IC50 (KRAS G12C) [µM],IC50 (KRAS G12D) [µM],IC50 (KRAS G12S) [µM],IC50 (KRAS G12V) [µM],IC50 (KRAS G13C) [µM],IC50 (KRAS G13D) [µM],IC50 (KRAS WT) [µM],IC50 (NRAS G12C) [µM],EC50 [2] [µM],Structure (SMILES)
1 to 10,0.01 to 0.1,0.1 to 1,0.1 to 1,0.1 to 1,0.1 to 1,0.1 to 1,0.1 to 1,0.1 to 1,,CCn1c(-c2cnccc2COC)c2c3cc(ccc31)-c1cc(O)cc(c1)C[C@H](NC(=O)[C@H](C(C)C)N(C)C(=O)[C@H]1CCN(C(=O)C(C)(C)N)C1)C(=O)N1CCC[C@H](N1)C(=O)OCC(C)(C)C2 [Compound A15]
1 to 10,0.1 to 1,1 to 10,0.1 to 1,1 to 10,0.1 to 1,0.1 to 1,0.1 to 1,0.1 to 1,,CCn1c(-c2cnccc2COC)c2c3cc(ccc31)-c1cc(O)cc(c1)C[C@H](NC(=O)[C@H](C(C)C)N(C)C(=O)N1CCN(C)CC1)C(=O)N1CCC[C@H](N1)C(=O)OCC(C)(C)C2 [Compound A46]
1 to 10,0.1 to 1,1 to 10,0.1 to 1,1 to 10,0.1 to 1,0.1 to 1,0.1 to 1,1 to 10,< 5,CCn1c(-c2cnccc2COC)c2c3cc(ccc31)-c1cc(O)cc(c1)C[C@H](NC(=O)[C@H](C(C)C)N(C)C(=O)[C@H]1CCN(C3COC3)C1)C(=O)N1CCC[C@H](N1)C(=O)OCC(C)(C)C2 [Compound A51]

# — patent publication US20250195521A1 (Revolution Medicines, Inc., priority 2020, published 2025)
